For orientation: pIC50 means −log10 of the IC50, conventionally taken in molar units.

The record followed here is ChEMBL document CHEMBL1141346, “Psammaplysenes C and D, cytotoxic alkaloids from Psammoclemma sp” (J Nat Prod, 2007).

The structures appear in SMILES notation. pIC50: −log10 of the molar value.

One assay concerns THP-1. Put plainly: Cytotoxicity against human THP1 cells expressing P2X7 receptor after 21 hrs by Almar blue cytotoxicity assay. The format is functional, cell-based. To be noted: THP-1, 21 h.
For assay [1], the target named is T1, P2X purinoceptor 7 (Homo sapiens) (UniProt Q99572).
T1 sequence (whole entry): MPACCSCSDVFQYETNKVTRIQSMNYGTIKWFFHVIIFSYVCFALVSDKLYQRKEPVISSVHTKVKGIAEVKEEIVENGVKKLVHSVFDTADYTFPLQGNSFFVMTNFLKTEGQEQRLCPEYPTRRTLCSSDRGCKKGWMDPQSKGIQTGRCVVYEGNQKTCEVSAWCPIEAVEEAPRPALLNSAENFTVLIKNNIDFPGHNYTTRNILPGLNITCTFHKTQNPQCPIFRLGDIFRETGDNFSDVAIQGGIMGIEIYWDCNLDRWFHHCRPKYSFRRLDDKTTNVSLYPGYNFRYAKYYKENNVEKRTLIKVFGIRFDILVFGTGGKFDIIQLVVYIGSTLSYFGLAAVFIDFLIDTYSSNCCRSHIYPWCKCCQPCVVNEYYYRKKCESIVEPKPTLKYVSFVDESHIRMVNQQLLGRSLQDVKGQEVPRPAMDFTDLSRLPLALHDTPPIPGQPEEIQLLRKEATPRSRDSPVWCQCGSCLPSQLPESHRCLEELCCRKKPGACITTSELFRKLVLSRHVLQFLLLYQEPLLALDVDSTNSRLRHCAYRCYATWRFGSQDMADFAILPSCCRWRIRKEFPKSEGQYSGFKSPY
Put plainly: Antagonist activity at P2X7 receptor expressed in human THP1 cells after 90 mins. The format is functional, cell-based. Also noted: scale not given: the % may be the effect or the level left. As to conditions: THP-1.

In turn, `CN(C)CCCOc1ccc(/C=C/C(=O)N(C)CCCOc2c(Br)cc(CCN(C)C)cc2Br)cc1Br` [PSAMMAPLYSENE C] showed a pIC50 in the assay with THP-1 of 5.15. In assay [1], this compound displayed an Activity of 44%.
For `CN(C)CCCOc1c(Br)cc(/C=C/C(=O)N(C)CCCOc2c(Br)cc(CCN(C)C)cc2Br)cc1Br` [PSAMMAPLYSENE D], in that order: 5.15 and 72%.
